pIC50: −log10 of the molar value.
Tests used:
[1] = tested on: U1 cells latently infected with HIV-1; test: U1 latency activation assay (TNF-α induced, supernatant reverse transcriptase); assay type: cell-based; conditions: U1 cell assay, analogs, Table 8
Procedure: U1 cells were obtained from the AIDS Research and Reference Reagent Program and maintained under standard culture conditions in RPMI 1640 supplemented with 10% fetal bovine serum (heat inactivated), 2 mM L-glutamine, 100 U/mL penicillin and 100 μg/mL streptomycin. U1 cells are derived from the histocytic leukemia cell line U937, and contain an integrated copy of a cytokine and/or phorbol inducible provirus (HIV-1IIIB). Cultures were maintained in such a way as to ensure exponential growth of the populations. Addition of TNF-α to the cell culture induces HIV-1, so that inhibition of virus production indicates an inhibition of a post-integration function of the HIV-1 life cycle. This is where an inhibitor of Rev function would be expected to act. […]
(§1) At the time of the assay, cells were collected by centrifugation and counted by hemacytometer. If cell viability by Trypan Blue dye exclusion was less than 70% the assay was terminated. The cells were adjusted to 5×10^4 cells/mL and 100 μL placed in 96 well plates with 100 μL media containing a final concentration of 5 ng/mL TNF-α and the test compound. Cultures were incubated for 3 days and supernatants harvested. Compound toxicity was determined by MTS dye reduction. Virus expression was measured by supernatant reverse transcriptase activity.
Reverse transcriptase was assayed to measure virus particle release as described above for the PBMC assay.
(§2) Compounds were tested in the U1 latency assay using the maximum high-test concentration possible based on the supplied stocks which are listed in table 3. Compounds were tested using the maximum high-test concentration possible based on the supplied stocks. Compounds were prepared at a 2× high-test concentration by combining drug stock with tissue culture media at a ratio of 5 μL of drug to 995 μL of media. This 2× high-test sample was subsequently serially diluted in tissue culture media using 1/2 log dilutions. This series of 2× concentrated drug was subsequently diluted 1:1 by combining with an equal volume of cells in media in the 96-well plates used for the assay. Temacrazine a known inhibitor of HIV transcription was used as a control compound that is active in the post-integration part of the HIV life cycle.
(§3) Compounds were tested using the maximum high-test concentration possible based on the supplied stocks. Compounds were prepared at a 2× high-test concentration by combining drug stock with tissue culture media at a ratio of 5 μL of drug to 995 μL of media. This 2× high-test (HT) sample was subsequently serially diluted in tissue culture media using 1/2 log dilutions. This series of 2× concentrated drug was subsequently diluted 1:1 by combining with an equal volume of cells in media in the 96-well plates used for the assay.

U1 cells = test: MTS staining for cell viability in U1 cell assay; assay type: cell-based; conditions: analogs, Table 8, MTS, read-out: TC50 (the source's name)
Procedure: as §1
At assay termination, the assay plates were stained with the soluble tetrazolium-based dye MTS (CellTiter 96 Reagent, Promega) to determine cell viability and quantify compound toxicity as described for the PBMC assay.
as §2, §3

Row | SMILES | pIC50 [1] | CC50 (U1 cells)
1 | COc1ccccc1NC(=O)c1cc(Cl)nnc1Cl [Compound 511] | 4.84 | 17.3 µM
2 | CCOC(=O)c1c(C)nc2sc(C(N)=O)c(N)c2c1-c1ccccc1 [Compound 338] | 5.28 | > 75 µM
3 | CCOC(=O)c1c2c(nc3sc(C(N)=O)c(N)c13)CCCC2 [Compound 327] | 6.22 | 65.8 µM
4 | Cc1ccc(-c2nc(Nc3ccc(I)cc3)c3ccccc3n2)cc1 [Compound 729] | < 4.12 | > 75 µM
5 | O=C(Nc1cccc(C(F)(F)F)c1)c1sc(Cl)nc1C(F)(F)F [Compound 414] | 4.84 | 14.7 µM
6 | COc1ccccc1Nc1nc(-c2ccccc2O)nc2ccccc12 [Compound 751] | 4.15 | > 75 µM
7 | COc1ccc(Nc2nc(-c3ccccc3F)nc3ccccc23)cc1 [Compound 749] | 5.69 | 19.5 µM
8 | NC(=O)c1sc2nc(-c3cccs3)cc(-c3ccc(F)cc3)c2c1N [Compound 322] | 5.05 | 17.4 µM
9 | Cc1ccc(NC(=O)c2sc(Cl)nc2C)cc1 [Compound 417] | 5.79 | 51.9 µM
10 | NC(=O)c1sc2nc(-c3cccs3)cc(C(F)(F)F)c2c1N [Compound 317] | < 4.12 | > 75 µM
11 | COc1ccc2nc3c(c(N)c2c1)CCCC3 [Compound 211] | 5.04 | 48.5 µM
12 | COc1ccc(-c2cc(-c3ccc(OC)cc3)c3c(N)c(C(N)=O)sc3n2)cc1 [Compound 339] | 5.89 | 38.3 µM
13 | O=C(c1cc(Cl)nnc1Cl)N1CCOCC1 [Compound 512] | 4.58 | > 75 µM
14 | COc1ccc(-c2cc(-c3ccccc3)nc3sc(C(N)=O)c(N)c23)cc1 [Compound 335] | 5.85 | 53.9 µM
15 | NC(=O)c1sc2nc(-c3cccnc3)ccc2c1N [Compound 316] | 4.63 | > 75 µM
16 | Cc1nc(Cl)sc1C(=O)Nc1ccc(C(C)(C)C)cc1 [Compound 420] | 5.17 | > 75 µM
17 | COc1ccc(-c2cnc(OC(C)(C)C)nc2OC(C)(C)C)cc1 [Compound 618] | 4.74 | 53.6 µM
18 | CN(C)c1ccnc2sc(C(N)=O)c(N)c12 [Compound 325] | 6.55 | > 75 µM
19 | O=C(Nc1ccccc1F)c1sc(Cl)nc1C(F)(F)F [Compound 415] | 4.43 | 51.2 µM
20 | CC(=O)c1ccc(Nc2nc(-c3ccccc3)nc3ccccc23)cc1 [Compound 755] | 5.75 | > 75 µM
21 | NC(=O)c1sc2nc3c(cc2c1N)CCC3 [Compound 324] | 5.66 | > 75 µM
22 | Cc1ccc(NC(=O)c2sc(Cl)nc2-c2ccccc2)cc1C [Compound 422] | 4.84 | > 75 µM

Row | SMILES | pIC50 [1] | CC50 (U1 cells)
23 | CCc1c(C)nc2sc(C(=O)NCC(=O)O)c(N)c2c1C [Compound 331] | 4.18 | > 75 µM
24 | O=C(NCc1ccccn1)c1cc(Cl)nnc1Cl [Compound 515] | 4.87 | > 75 µM
25 | Oc1nc(S)nc(O)c1-c1ccccc1 [Compound 613] | < 4.12 | > 75 µM
26 | N#Cc1c(C(F)(F)F)nc2ccc(F)cc2c1N [Compound 212] | 6.32 | 28.6 µM
27 | Cc1ccc(NC(=O)c2sc(Cl)nc2C)cc1C [Compound 416] | 6.12 | > 75 µM
28 | O=C(Nc1cccc(F)c1)c1sc(Cl)nc1C(F)(F)F [Compound 413] | 4.68 | 50.7 µM
29 | N#Cc1ccc(NC(=O)c2sc(Cl)nc2-c2ccccc2)cc1 [Compound 421] | < 4.12 | > 75 µM
30 | COc1cc2cc3c(=O)[nH]c(-c4ccc(C)cc4)nc3nc2cc1OC [Compound 114] | 4.84 | > 75 µM
31 | NC(=O)c1sc2nc(Cc3ccccc3)cc(C(F)(F)F)c2c1N [Compound 334] | 5.63 | > 75 µM
32 | O=[N+]([O-])c1ccc(-c2cnc(NO)nc2)cc1 [Compound 614] | < 4.12 | > 75 µM
33 | Clc1ccccc1Nc1nc(-c2ccc(Br)cc2)nc2ccccc12 [Compound 731] | 5.78 | > 75 µM
34 | COc1ccc(-c2c(C(C)=O)c(C)nc3sc(C(N)=O)c(N)c23)cc1 [Compound 311] | 5.78 | > 75 µM
35 | Cc1n[nH]c2nc3ccc(Cl)cc3c(-c3ccccc3)c12 [Compound 111] | 5.77 | > 50 µM
36 | Cc1cc2c(N)c(C(N)=O)sc2nc1C [Compound 328] | 5.97 | 37 µM
37 | Cc1nc(Cl)sc1C(=O)Nc1ccc(C(F)(F)F)cc1 [Compound 418] | 5.66 | > 75 µM
38 | Cc1cccc(-c2nc(Nc3ccc(I)cc3)c3ccccc3n2)c1 [Compound 718] | 4.33 | 50.1 µM
39 | CCOc1ccccc1Nc1nc(-c2ccc(C)cc2)nc2ccccc12 [Compound 730] | < 4.12 | > 75 µM
40 | CCc1c(C)nc2sc(C(=O)c3ccc(Cl)cc3)c(N)c2c1C [Compound 313] | < 4.30 | > 50 µM
41 | Clc1ccc(-c2nc(Nc3ccc(Oc4ccccc4)cc3)c3ccccc3n2)cc1 [Compound 753] | 4.33 | 48 µM
42 | COc1cc2cc(C(=O)Nc3ccccc3)c(N)nc2cc1OC [Compound 113] | 4.56 | > 75 µM
43 | CC(=O)Nc1ccc(Nc2nc(-c3ccccc3)nc3ccccc23)cc1 [Compound 754] | 5.43 | 15.1 µM
44 | O=C(Nc1ccccc1)c1sc(Cl)nc1C(F)(F)F [Compound 412] | 4.78 | 51.7 µM

Row | SMILES | pIC50 [1] | CC50 (U1 cells)
45 | Cc1ccc2c(N)c(C(N)=O)sc2n1 [Compound 314] | 5.68 | > 75 µM
46 | Cc1ccc(Nc2ncnc3ccccc23)cc1C [Compound 719] | 5.76 | > 75 µM
47 | Cc1ccc(-c2cc(-c3ccccc3)nc3sc(C(N)=O)c(N)c23)cc1 [Compound 323] | 6.13 | 22.6 µM
48 | CSc1ncc2c(n1)[nH]c1ccccc12 [Compound 616] | 6.04 | > 75 µM
49 | CCCc1ccc2c(N)c(C(N)=O)sc2n1 [Compound 329] | 5.69 | 58.4 µM
50 | C=CCc1c(C)nc2ccc(OC)cc2c1N [Compound 214] | 5.04 | > 75 µM
51 | Cc1cc(C(F)(F)F)c2c(N)c(C(N)=O)sc2n1 [Compound 318] | > 6.63 | > 75 µM
52 | COCc1cc(C)nc2sc(C(N)=O)c(N)c12 [Compound 320] | 6.28 | > 75 µM
53 | CC1CCc2nc3sc(C(N)=O)c(N)c3cc2C1 (stereo not drawn) [Compound 336] | 5.53 | > 75 µM
54 | COc1ccc(-c2cnc(S(C)(=O)=O)nc2)cc1 [Compound 615] | 4.92 | > 75 µM
55 | CN1CCc2nc3sc(C(N)=O)c(N)c3cc2C1 [Compound 319] | 4.69 | > 37.5 µM
56 | Cc1n[nH]c2nc3ccc(Br)cc3c(-c3ccccc3)c12 [Compound 112] | 5.97 | > 50 µM
57 | Oc1ccccc1-c1nc(Nc2ccc(F)c(F)c2)c2ccccc2n1 [Compound 750] | < 4.12 | > 75 µM
58 | Cc1nc2sc(C(N)=O)c(N)c2c(C)c1CC(=O)c1ccccc1 [Compound 315] | 6.12 | > 75 µM
59 | COc1ccc(-c2cnc(OC(C)(C)C)nc2OC(C)(C)C)cc1OC [Compound 617] | < 4.12 | > 75 µM
60 | Brc1ccc(Nc2nc(-c3ccncc3)nc3ccccc23)cc1 [Compound 734] | 5.39 | > 12.5 µM
61 | Cc1ccc(-c2cc(C(F)(F)F)c3c(N)c(C(N)=O)sc3n2)cc1 [Compound 332] | < 4.12 | 22.5 µM
62 | FC(F)(F)c1cccc(Nc2nc(-c3ccccc3)nc3ccccc23)c1 [Compound 722] | 4.66 | 35 µM
63 | CN1CCN(C(=O)c2cc(Cl)nnc2Cl)CC1 [Compound 513] | 5.15 | > 75 µM
64 | Cc1cc2c(N)c(C(N)=O)sc2nc1-c1ccc(F)cc1 [Compound 330] | 5.16 | > 75 µM
65 | Cc1ccc(NC(=O)c2sc(Cl)nc2-c2ccccc2)c(C)c1 [Compound 423] | 4.37 | > 75 µM
66 | Cc1nc(Oc2ccccc2)c2ccccc2n1 [Compound 756] | 5.76 | 52 µM
